Columns and labels:
Conditions in all cases: 48 h
P12-Ichikawa [1] = test: AUC of viability dose-response curve (% viability x log10 dose units); higher = less sensitive
In short: (§1)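 In 1536-well plates, leukemia cells adapted to each medium (500 or 1000 cells/well) were exposed for 48 h at 37°C to library compounds in DMSO across 11 threefold doses, 47 μM down to 0.79 nM. Viability was read by CellTiter-Glo One luminescence and normalised per plate to DMSO and cell-free wells. A four-parameter log-logistic fit over log10 doses was integrated by trapezoidal rule. This yielded the area under the curve, with over-full-viability curves scaled and quality-control failures dropped.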

NOMO1 [2] = test: as above
In short: as §1

SEM cells [3] = test: as above
In short: as §1

SEM cells [4] = test: cell viability relative to DMSO control; higher = less cytotoxic
In short: (§2)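 NOMO1 or SEM (500 cells/well) or P12-Ichikawa (1000 cells/well) leukemia cells were adapted for at least four passages in each medium. They were seeded in 1536-well plates (5 μl) and pin-dosed with library compounds in DMSO over an 11-point threefold series, 47 μM to 0.79 nM. CellTiter-Glo One luminescence was read after 48 h at 37°C. Viability is the per-plate percentage relative to DMSO wells, with cell-free wells as background.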

P12-Ichikawa [5] = test: as above
In short: as §2

NOMO1 [6] = test: as above
In short: as §2

CN(C)NC(=O)CCC(=O)O
AUC of viability dose-response curve
Conditions | NOMO1 [2] | P12-Ichikawa [1] | SEM cells [3]
HPLM + 10% dialyzed FBS | 464 | 464 | 468
RPMI 5 mM glucose + 10% FBS | 467 | 464 | 464
RPMI 5 mM glucose + 10% dialyzed FBS | 471 | 466 | 474

O=C1Nc2cc(Br)ccc2/C1=C1/Nc2ccccc2/C1=N\O
cell viability [%], SEM cells [4]
Conditions | HPLM + 10% dialyzed FBS | RPMI 5 mM glucose + 10% FBS | RPMI 5 mM glucose + 10% dialyzed FBS
0.000781 µM | 109 | 87.2 | 111
0.00234 µM | 102 | 113 | 102
0.00702 µM | 110 | 110 | 89.9
0.0211 µM | 100 | 95.3 | 99.4
0.0632 µM | 108 | 98.4 | 90.5
0.19 µM | 78.5 | 98.8 | 69.9
0.569 µM | 66.5 | 60 | 64.9
1.71 µM | 31.5 | 21.3 | 34.8
5.12 µM | 4.61 | 2.47 | 4.53
15.4 µM | 3.01 | 1.39 | 2.51
46.1 µM | 1.68 | 0.712 | 1.3

AUC of viability dose-response curve
Conditions | NOMO1 [2] | P12-Ichikawa [1] | SEM cells [3]
HPLM + 10% dialyzed FBS | 366 | 365 | 296
RPMI 5 mM glucose + 10% FBS | 391 | 377 | 299
RPMI 5 mM glucose + 10% dialyzed FBS | 401 | 382 | 290

COc1cc(C)c(Sc2cnc(NC(=O)c3ccc(CNC(C)C(C)(C)C)cc3)s2)cc1C(=O)N1CCN(C(C)=O)CC1 (stereo not given)
Conditions | cell viability [%]
NOMO1 [6], RPMI 5 mM glucose + 10% FBS, 0.000781 µM | 116
NOMO1 [6], RPMI 5 mM glucose + 10% FBS, 0.00234 µM | 131
NOMO1 [6], RPMI 5 mM glucose + 10% FBS, 0.00702 µM | 124
NOMO1 [6], RPMI 5 mM glucose + 10% FBS, 0.0211 µM | 128
NOMO1 [6], RPMI 5 mM glucose + 10% FBS, 0.0632 µM | 127
NOMO1 [6], RPMI 5 mM glucose + 10% FBS, 0.19 µM | 124
NOMO1 [6], RPMI 5 mM glucose + 10% FBS, 0.569 µM | 132
NOMO1 [6], RPMI 5 mM glucose + 10% FBS, 1.71 µM | 115
NOMO1 [6], RPMI 5 mM glucose + 10% FBS, 5.12 µM | 114
NOMO1 [6], RPMI 5 mM glucose + 10% FBS, 15.4 µM | 115
NOMO1 [6], RPMI 5 mM glucose + 10% FBS, 46.1 µM | 17
P12-Ichikawa [5], HPLM + 10% dialyzed FBS, 0.000781 µM | 125
P12-Ichikawa [5], HPLM + 10% dialyzed FBS, 0.00234 µM | 129
P12-Ichikawa [5], HPLM + 10% dialyzed FBS, 0.00702 µM | 120
P12-Ichikawa [5], HPLM + 10% dialyzed FBS, 0.0211 µM | 120
P12-Ichikawa [5], HPLM + 10% dialyzed FBS, 0.0632 µM | 122
P12-Ichikawa [5], HPLM + 10% dialyzed FBS, 0.19 µM | 127
P12-Ichikawa [5], HPLM + 10% dialyzed FBS, 0.569 µM | 115
P12-Ichikawa [5], HPLM + 10% dialyzed FBS, 1.71 µM | 110
P12-Ichikawa [5], HPLM + 10% dialyzed FBS, 5.12 µM | 109
P12-Ichikawa [5], HPLM + 10% dialyzed FBS, 15.4 µM | 101
P12-Ichikawa [5], HPLM + 10% dialyzed FBS, 46.1 µM | 7.33

AUC of viability dose-response curve
Conditions | NOMO1 [2] | P12-Ichikawa [1] | SEM cells [3]
HPLM + 10% dialyzed FBS | 442 | 447 | 365
RPMI 5 mM glucose + 10% FBS | 453 | 444 | 358
RPMI 5 mM glucose + 10% dialyzed FBS | 437 | 439 | 350

CC(=O)O[C@@]1(CC[C@H]2[C@@H]3\C=C(C)/C4=C/C(=O)CC[C@]4(C)[C@H]3CC[C@]12C)C(C)=O
cell viability [%]
Conditions | NOMO1 [6] | P12-Ichikawa [5] | SEM cells [4]
HPLM + 10% dialyzed FBS, 0.000781 µM | 115 | 99.7 | 79.1
HPLM + 10% dialyzed FBS, 0.00234 µM | 111 | 115 | 80
HPLM + 10% dialyzed FBS, 0.00702 µM | 107 | 109 | 82
HPLM + 10% dialyzed FBS, 0.0211 µM | 96.1 | 114 | 82.7
HPLM + 10% dialyzed FBS, 0.0632 µM | 109 | 109 | 105
HPLM + 10% dialyzed FBS, 0.19 µM | 123 | 117 | 99.4
HPLM + 10% dialyzed FBS, 0.569 µM | 130 | 112 | 95.8
HPLM + 10% dialyzed FBS, 1.71 µM | 107 | 112 | 99.2
HPLM + 10% dialyzed FBS, 5.12 µM | 110 | 115 | 108
HPLM + 10% dialyzed FBS, 15.4 µM | 116 | 106 | 98.4
HPLM + 10% dialyzed FBS, 46.1 µM | 119 | 89.1 | 104
RPMI 5 mM glucose + 10% FBS, 0.000781 µM | 100 | 101 | 89.3
RPMI 5 mM glucose + 10% FBS, 0.00234 µM | 102 | 107 | 83.8
RPMI 5 mM glucose + 10% FBS, 0.00702 µM | 99.9 | 110 | 86.7
RPMI 5 mM glucose + 10% FBS, 0.0211 µM | 110 | 117 | 97.6
RPMI 5 mM glucose + 10% FBS, 0.0632 µM | 101 | 115 | 93.5
RPMI 5 mM glucose + 10% FBS, 0.19 µM | 108 | 117 | 101
RPMI 5 mM glucose + 10% FBS, 0.569 µM | 107 | 120 | 100
RPMI 5 mM glucose + 10% FBS, 1.71 µM | 110 | 109 | 104
RPMI 5 mM glucose + 10% FBS, 5.12 µM | 109 | 100 | 95
RPMI 5 mM glucose + 10% FBS, 15.4 µM | 99 | 99.5 | 106
RPMI 5 mM glucose + 10% FBS, 46.1 µM | 108 | 85.5 | 99.7
RPMI 5 mM glucose + 10% dialyzed FBS, 0.000781 µM | 88.1 | 94.9 | 96.5
RPMI 5 mM glucose + 10% dialyzed FBS, 0.00234 µM | 92.1 | 102 | 96.7
RPMI 5 mM glucose + 10% dialyzed FBS, 0.00702 µM | 95.5 | 101 | 104
RPMI 5 mM glucose + 10% dialyzed FBS, 0.0211 µM | 113 | 112 | 109
RPMI 5 mM glucose + 10% dialyzed FBS, 0.0632 µM | 102 | 103 | 101
RPMI 5 mM glucose + 10% dialyzed FBS, 0.19 µM | 112 | 108 | 100
RPMI 5 mM glucose + 10% dialyzed FBS, 0.569 µM | 107 | 106 | 107
RPMI 5 mM glucose + 10% dialyzed FBS, 1.71 µM | 118 | 107 | 115
RPMI 5 mM glucose + 10% dialyzed FBS, 5.12 µM | 105 | 98.2 | 96.2
RPMI 5 mM glucose + 10% dialyzed FBS, 15.4 µM | 86.8 | 93.2 | 108
RPMI 5 mM glucose + 10% dialyzed FBS, 46.1 µM | 112 | 79 | 81.7

AUC of viability dose-response curve
Conditions | NOMO1 [2] | P12-Ichikawa [1] | SEM cells [3]
HPLM + 10% dialyzed FBS | 459 | 470 | 444
RPMI 5 mM glucose + 10% FBS | 465 | 460 | 455
RPMI 5 mM glucose + 10% dialyzed FBS | 449 | 464 | 472

Source: the supplement of paper PMC11451515
